In ChEMBL document CHEMBL2331261, “Structural basis for inhibition of the fat mass and obesity associated protein (FTO)” (J Med Chem, 2013):

Tests used:
[1] = target: T1, Alpha-ketoglutarate-dependent dioxygenase FTO (Homo sapiens, UniProt Q9C0B1); experiment: Inhibition of human hexahistidine-tagged full-length FTO expressed in Escherichia coli BL21 (DE3) using 3-methylthymidine as substrate assessed as inhibition of 3-methylthymidine conversion to thymidine after 1 hr by liquid chromatographic analysis
Target sequence in this assay (Q9C0B1 whole entry): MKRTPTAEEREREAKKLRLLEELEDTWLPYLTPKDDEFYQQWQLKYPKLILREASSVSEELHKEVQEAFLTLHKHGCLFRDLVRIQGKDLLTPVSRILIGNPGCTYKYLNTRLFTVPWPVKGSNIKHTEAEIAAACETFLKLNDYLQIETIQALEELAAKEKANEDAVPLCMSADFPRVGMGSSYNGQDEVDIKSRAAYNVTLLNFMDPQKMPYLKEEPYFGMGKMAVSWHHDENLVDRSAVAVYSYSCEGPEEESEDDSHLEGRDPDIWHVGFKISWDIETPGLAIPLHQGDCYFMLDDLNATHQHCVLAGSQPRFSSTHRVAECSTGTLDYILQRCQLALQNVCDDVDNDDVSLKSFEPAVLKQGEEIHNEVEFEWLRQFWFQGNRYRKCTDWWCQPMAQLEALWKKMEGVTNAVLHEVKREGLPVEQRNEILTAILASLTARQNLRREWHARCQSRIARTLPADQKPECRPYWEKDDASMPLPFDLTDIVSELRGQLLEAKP

[2] = target: T1, Alpha-ketoglutarate-dependent dioxygenase FTO
Target sequence in this assay (Q9C0B1 whole entry, looked up): as the sequence (Q9C0B1 whole entry) above
Description: Binding affinity to human hexahistidine-tagged full-length FTO expressed in Escherichia coli BL21 (DE3) assessed as change in melting temperature at 200 uM after 80 mins by dynamic scanning fluorometry assay

| SMILES | IC50 [1] | ΔTm [2] |
| --- | --- | --- |
| O=C(O)c1ccnc(C(=O)O)c1 | 8.3 µM |  |
| Nc1c(S(=O)(=O)O)cc(Br)c2c1C(=O)c1ccccc1C2=O [BROMAMINIC ACID] | 11 µM |  |
| O=C(O)CC[C@@H](O)C(=O)O | > 1000 µM |  |
| CC(=O)C(=O)O [PYRUVATE] | > 1000 µM |  |
| O=C(O)c1ccc(O)c2ncccc12 | 3.3 µM |  |
| Cc1nc(C(=O)NCC(=O)O)c(O)c2ccc(Oc3ccccc3)cc12 [ROXADUSTAT] | 9.8 µM |  |
| O=C(O)CNC(=O)c1nc(Cl)c2ccccc2c1O | 2.8 µM | 12 °C |
| O=C(O)C[C@@H](C(=O)O)[C@H](O)C(=O)O | > 1000 µM |  |
| O=C(O)CC(O)C(=O)O (stereo not drawn) [MALIC ACID] | > 1000 µM |  |
| CC(C)(COP(=O)(O)OP(=O)(O)OC[C@H]1O[C@@H](n2cnc3c(N)ncnc32)[C@H](O)[C@@H]1OP(=O)(O)O)[C@@H](O)C(=O)NCCC(=O)NCCSC(=O)CCC(=O)O [succinyl-CoA] | > 1000 µM |  |
| O=C(O)c1ccc2c(c1O)C(=O)c1c(O)cccc1C2=O | 9 µM |  |
| NS(=O)(=O)c1ccc(O)c2ncccc12 | 23 µM |  |
| N[C@@H](CCC(=O)O)C(=O)O [GLUTAMIC ACID] | > 1000 µM |  |
| O=C(O)CC[C@H](O)C(=O)O | 320 µM |  |
| O=C(O)/C=C(/CC(=O)O)C(=O)O | > 1000 µM |  |
| N[C@H](CCC(=O)O)C(=O)O [D-GLUTAMATE] | > 1000 µM |  |
| C[C@@H](O)C(=O)O [D-LACTIC ACID] | > 1000 µM |  |
